≈ marks a conversion by molar mass, not a printed value.
Conditions: buffer; pH 7.4; 200.0 µM

Row | Compound | solubility kinetic [µg/mL]
1 | Cc1onc(-c2ccccc2Cl)c1C(=O)NCc1ccccc1F | > 51.7
2 | Cn1c(=O)[nH]c(=O)c2c1nc1n2CCCN1Cc1ccccc1 | 8.1 (≈ 26 µM)
3 | Nc1ccc(Oc2ccccc2-c2ccccc2)cc1 | 10.4 (≈ 39.8 µM)
4 | CC1CCCC(NC(=O)COC(=O)COc2ccccc2Cl)C1C (stereo unspecified) | 31.1 (≈ 87.9 µM)
5 | COc1ccc2c(c1)Sc1ccccc1N2 | 2.7 (≈ 11.8 µM)
6 | Cc1ccc(Cn2cccc(NS(C)(=O)=O)c2=O)cc1 | > 43.9
7 | S=C([S-])N1CCCC1.[NH4+] | 16.6
8 | COc1cccc(SCC2CSc3nc4ccccc4c(=O)n32)c1 (stereo unspecified) | > 53.5
9 | CC(C)(C)c1cc(NC(=O)c2cccs2)no1 | 32.7 (≈ 131 µM)
10 | CC(=O)Nc1ccc(S(=O)(=O)N2CCCC2)cc1 | > 40.2
11 | O=C(NC1CCCCC1)N1CCc2ccccc2C1 | > 38.8
12 | Cc1ccc2nc(-c3ccc(NC(=O)COCC(=O)O)cc3)sc2c1 | > 53.5
13 | S=C(c1c[nH]c2ccccc12)N1CCCC1 | > 34.5
14 | CCc1noc(C)c1C(=O)OCC(=O)NC(C)c1ccccc1 (stereo unspecified) | > 47.5
15 | O=C(O)C1C2c3ccccc3C(c3ccccc32)C1C(=O)Nc1ccccc1 (stereo unspecified) | > 55.4
16 | COc1ccc(NC(=O)NC2CCCCCCC2)c(OC)c1 | 5.5 (≈ 18 µM)
17 | Cc1ccc(S(=O)(=O)Nc2nc(C)c(C)s2)cc1 | 13.5 (≈ 47.8 µM)
18 | CN(C)C(=S)Nc1ccc(Br)cc1Cl | 23.4 (≈ 79.7 µM)
19 | CCCc1cc(=O)[nH]c(SC/C=C/c2ccccc2)n1 | 1.9 (≈ 6.63 µM)
20 | COc1ccccc1C(=O)NS(=O)(=O)c1ccc(C)cc1 | > 45.8
21 | CC(C)(C)c1ccc(C(=O)NCC(=O)N2CCCCCC2)cc1 | > 47.5
22 | COc1ccc(C(=O)O/N=C(\N)c2ccccn2)c(OC)c1 | > 45.2
23 | CC(=O)Nc1ccc(NC(=O)CCCn2cnc3ccccc3c2=O)cc1 | 49.1 (≈ 135 µM)
24 | C/C=C/c1ccc(OCC(=O)Nc2ccncc2)c(OC)c1 | 42.1 (≈ 141 µM)
25 | Cc1cc(C(=O)N2CCCC(C(=O)c3cc(F)ccc3F)C2)c(C)o1 (stereo unspecified) | 42.5 (≈ 122 µM)

Row | Compound | solubility kinetic [µg/mL]
26 | Br.N=C1CCCN1CC(=O)c1cccs1 | 39
27 | C/C(Cc1ccccc1)=N\NC(=O)CNC(=O)c1ccccc1O | > 48.8
28 | O=P(C(Cl)Cl)(N1CCOCC1)N1CCOCC1 | > 45.5
29 | Cc1ccc([N+](=O)[O-])cc1NC(=O)C(C)N1CCCCC1 (stereo unspecified) | 40.4 (≈ 139 µM)
30 | O=C(CC1OC(=O)c2ccccc21)Nc1cc(Cl)ccc1N1CCOCC1 (stereo unspecified) | 5.8 (≈ 15 µM)
31 | CCN(C(=O)COC(=O)c1ccc([N+](=O)[O-])o1)C1CCCCC1 | > 48.6
32 | CN1CCC(N(C)S(=O)(=O)c2ccc(NC(=O)c3ccc(S(=O)(=O)N(C)C)cc3)cc2)CC1 | > 74.2
33 | Cn1cc(C=C2C(=O)NC(=O)NC2=O)c2ccccc21 | 2.6 (≈ 9.66 µM)
34 | COc1ccccc1CNC(=O)COC(=O)c1ccncc1 | > 45
35 | O=C(CCNS(=O)(=O)c1ccc(Cl)cc1)N1CCCC1 | > 47.5
36 | CCOc1ccc(S(=O)(=O)NC(C)C(=O)NCc2ccccn2)cc1 (stereo unspecified) | > 54.5
37 | Cc1cc(C(=O)Nc2ccccc2N2CCOCC2)no1 | 19.2 (≈ 66.8 µM)
38 | COc1cc(OC)cc(/C(N)=N/O)c1 | 26.9 (≈ 137 µM)
39 | CC(NC(=O)Nc1ccc(F)cc1)c1ccc2c(c1)OCO2 (stereo unspecified) | 3.4 (≈ 11.2 µM)
40 | CCCCCCCc1c(O)nc(SCC(=O)O)[nH]c1=O | 43.9 (≈ 146 µM)
41 | COCCNc1c2c(c(C#N)c3nc4ccccc4n13)CCCC2 | 11.8 (≈ 36.8 µM)
42 | COc1cccc(C(=O)NCc2ccc3c(c2)OCO3)c1OC | > 47.3
43 | O=C(NCc1cccs1)C1CC(=O)N(c2ccc(Cl)cc2)C1 (stereo unspecified) | 11.9 (≈ 35.5 µM)
44 | O=C(COc1ccc(Br)cc1)OCC(=O)N1CCOCC1 | > 53.7
45 | O=C(NC1CC1)c1cccc(NC(=O)c2cn3ccccc3n2)c1 | > 48.1
46 | O=C(NCc1ccco1)c1cc(Cl)nc(Cl)c1 | 40.3 (≈ 149 µM)
47 | c1ccc(NC2=Nc3cccc4cccc2c34)cc1 | 0.6 (≈ 2.46 µM)
48 | C=Cc1ccc(C(=O)NC2CCCN(Cc3ccccc3F)C2)cc1 (stereo unspecified) | < 0.4
49 | COC(=O)c1onc(-c2c(Cl)cccc2Cl)c1C(=O)OC | 41.2 (≈ 125 µM)
50 | CC1CCCCC1NC(=O)CN1C(=O)c2ccccc2S1(=O)=O (stereo unspecified) | 25.7 (≈ 76.4 µM)

Row | Compound | solubility kinetic [µg/mL]
51 | CCCCCC(=O)Nc1ncc2c(n1)CC(c1cccs1)CC2=O (stereo unspecified) | 4.4 (≈ 12.8 µM)
52 | CC(C)=CC(=O)Nc1cccc(S(=O)(=O)NC2=NCCCCC2)c1 | > 52.4
53 | CC(=O)c1cccc(NC(=O)c2cc(=O)c3ccccc3o2)c1 | < 0.7
54 | COc1ccc(NC(=O)COC(=O)Cc2ccsc2)c(OC)c1 | 50.1 (≈ 149 µM)
55 | COc1ccccc1CN(C)C(=O)COC(=O)c1cc(C)oc1C | > 49.7
56 | CCN1CCN(c2ncnc3scc(-c4ccc(C)cc4)c23)CC1 | > 50.8
57 | CCOc1ccc(C(CC(=O)O)NC(=O)C(CC)c2ccccc2)cc1 (stereo unspecified) | 47.9 (≈ 135 µM)
58 | NC(=O)CCn1ccc2ccccc21 | > 28.2
59 | Cc1nc2ccccn2c1-c1ccnc(=S)[nH]1 | 31.8 (≈ 131 µM)
60 | CCOC(=O)c1cncc(C#CCO)c1 | > 30.8
61 | Cc1cccc(N2CCN(Cc3cnc(Cl)s3)CC2C)c1 (stereo unspecified) | 23.4 (≈ 72.7 µM)
62 | CC(NC(=O)COc1ccccc1)C(=O)NCc1ccc(S(N)(=O)=O)cc1 (stereo unspecified) | > 58.7
63 | CCCN1C2CCCC1CC(NC(=O)c1cccc(OC)c1)C2 (stereo unspecified) | > 47.5
64 | CCOC(=O)N1CCC(NS(=O)(=O)c2ccc(C)c(Cl)c2)CC1 | > 54.1
65 | CCCCCC(=O)Nc1cccc(S(=O)(=O)NC2=NCCC2)c1 | > 50.6
66 | CCCCn1c2c(c(=N)c3ccccc31)CCC2.I | > 55.2
67 | CCOc1ncccc1C(=O)OCC(=O)c1ccccc1 | 39.9 (≈ 140 µM)
68 | O=C(Nc1ccccc1)O/N=C1/CCCc2occc21 | 16.6 (≈ 61.4 µM)
69 | CCOc1ncccc1C(=O)Nc1ccc(S(=O)(=O)N2CC(C)CC(C)C2)cc1 (stereo unspecified) | 0.9 (≈ 2.16 µM)
70 | Cc1nnc(NN2CCOCC2)[nH]c1=O | > 31.7
71 | Cc1ccc(NC(=O)c2c(-c3ccccc3Cl)noc2C)nc1 | 0.3 (≈ 0.915 µM)
72 | Cc1cc(N2CCN(c3ncccn3)CC2)nc2c(C)cccc12 | 0.2 (≈ 0.626 µM)
73 | CCC(C)Oc1ccc(C(=O)Nc2ccc(CN3CCOCC3)cc2)cc1 (stereo unspecified) | 54.1 (≈ 147 µM)
74 | O=C1CCC(=O)N1OCCOc1ccc(Cl)c2ccccc12 | 5.3 (≈ 16.6 µM)
75 | Cc1ccc(NC2(C#N)C(=O)Nc3ccccc32)cc1C (stereo unspecified) | 23.3 (≈ 84 µM)

Row | Compound | solubility kinetic [µg/mL]
76 | CN(C(=O)CSc1nc2ccccc2c(=O)n1-c1ccccc1Cl)C1CCS(=O)(=O)C1 (stereo unspecified) | 71.1 (≈ 149 µM)
77 | CCCOc1ccc(C(=O)Nc2ccc3c(c2)OCO3)cc1 | 1 (≈ 3.34 µM)
78 | COc1ccccc1C(=O)c1nc2ccccc2n1C | 19.7 (≈ 74 µM)
79 | CCCOc1ccc(/C=C/C(=O)NC2CCCCC2)cc1 | < 0.6
80 | C/C(=N\O)C(=O)Nc1ccccc1 | > 26.7
81 | CC(C)CC(=O)Nc1ccc(-c2cn3cccnc3n2)cc1 | > 44.2
82 | Cc1ccc(N2C(=O)N(CC(=O)Nc3cc(C)cc(C)c3)C(=O)C2C)cc1 (stereo unspecified) | 7.5 (≈ 20.5 µM)
83 | CCc1c(C#N)c(=O)[nH]c(=O)n1-c1ccccc1 | > 36.2
84 | CCOC(=O)Cn1c(=O)cc(C)c2ccccc21 | > 36.8
85 | N#C/C(=C\Nc1ccc(Cl)cc1)S(=O)(=O)c1ccccn1 | 8.7 (≈ 27.2 µM)
86 | Cc1nc2ccc(S(=O)(=O)N3CCCCC3)cc2s1 | 21.4 (≈ 72.2 µM)
87 | CCNS(=O)(=O)c1ccc(CCC(=O)N2CCC(C)CC2)cc1 | 49 (≈ 145 µM)
88 | CC(C)Cc1ccc(C(C)C(=O)Nc2ccccc2O)cc1 (stereo unspecified) | 1.9 (≈ 6.39 µM)
89 | CC(C)(C)Nc1nc(Cl)nc(Nc2ccccc2)n1 | 2.9 (≈ 10.4 µM)
90 | CN(C)c1nc(N)c([N+](=O)[O-])c(N2CCCCCC2)n1 | 39.7 (≈ 142 µM)
91 | CCCCCN1CC(O)=C(c2nc3ccccc3[nH]2)C1=N | 1.1 (≈ 3.87 µM)
92 | Cc1ccc(CS(=O)(=O)c2nc3c(c(N(C)C)n2)CCCC3)cc1 | 46 (≈ 133 µM)
93 | O=C(CNC(=O)[C@@H]1Cc2ccccc2CN1)NC1CCCCC1 | > 47.3
94 | Nc1ccncc1Cl | 16.3 (≈ 127 µM)
95 | COc1cccc(C(=O)CC(C#N)c2ccc(F)cc2)c1 (stereo unspecified) | 16 (≈ 56.5 µM)
96 | Cc1ccccc1OCC(=O)OCC(=O)NCc1ccco1 | > 45.5
97 | C[C@H](NC(N)=O)C(=O)Nc1ccc2c(c1)OCO2 | 32.9 (≈ 131 µM)
98 | Cc1cc(NC(=O)c2ccc3c(c2)C(=O)N(CC(C)C)C3=O)no1 | 2.1 (≈ 6.42 µM)
99 | CC(=O)Nc1ccc(NC(=O)c2sc(-c3ccccc3)nc2C)cc1 | 0.9 (≈ 2.56 µM)
100 | CCn1c(SCC(=O)OC)nnc1-c1ccc(C)cc1 | > 43.7

Row | Compound | solubility kinetic [µg/mL]
101 | NC(=O)c1ccc(NC(=O)CNC(c2ccccc2)c2ccccc2)cc1 | 3.7 (≈ 10.3 µM)
102 | CC1CCCN(S(=O)(=O)c2ccc(Cl)s2)C1 (stereo unspecified) | 10.8 (≈ 38.6 µM)
103 | COc1ccc(N2CC(C(=O)NC3CCSC3=O)CC2=O)cc1 (stereo unspecified) | > 50.2
104 | Cc1cnc(-n2c(=S)[nH]c3ccccc3c2=O)s1 | > 41.3
105 | O=[N+]([O-])c1sccc1CS(=O)(=O)c1ccccc1 | 20.6 (≈ 72.7 µM)
106 | NC1C2CN3CCN(C2)CC1(c1ccccc1)C3 (stereo unspecified) | > 36.5
107 | COc1cc2c(cc1OC)-c1cc(Nc3ccccc3)nc(=O)n1CC2 | 7.5 (≈ 21.5 µM)
108 | O=C(CCc1nc(-c2ccc(Cl)cc2)no1)NCC1CCCO1 (stereo unspecified) | > 50.4
109 | O=C(c1cccc([N+](=O)[O-])c1)N1CCN(C/C=C/c2ccccc2)CC1 | 52 (≈ 148 µM)
110 | CCN(C(=O)COC(=O)c1[nH]c(=O)[nH]c(=O)c1N)c1ccccc1 | 39.3 (≈ 118 µM)
111 | CC/C(=N\N1CCCCC1)c1c(O)[nH]c(=O)[nH]c1=O | > 39.9
112 | Cc1cc(C(=O)Nc2sccc2C(N)=O)c(C)o1 | 27.1 (≈ 103 µM)
113 | O=C(Nc1ccncc1)c1ccccc1Cl | > 34.9
114 | CCN(CCO)C(=O)c1ccc2oc(Cc3ccc(Cl)cc3)nc2c1 | 41.5 (≈ 116 µM)
115 | CN1CCCN(C(=O)c2cccc3ccccc23)CC1 | > 40.3
116 | O=C(c1ccccc1)C1CCN(c2ncccc2[N+](=O)[O-])CC1 | 10.8 (≈ 34.7 µM)
117 | O=C(CN1C(=O)NC2(CCCC2)C1=O)NCc1ccco1 | > 43.7
118 | O=C(NC1CCCCCC1)C(=S)N1CCOCC1 | 23.1 (≈ 85.4 µM)
119 | Cc1ccc(NC(=S)NCCc2ccccc2)nc1 | < 0.2
120 | CC(=O)c1c(C)[nH]c(C(=O)Nc2ccccn2)c1C | > 38.6
121 | CC1CN(C(=O)COC(=O)/C=C/c2cccc([N+](=O)[O-])c2)CC(C)O1 (stereo unspecified) | 34.2 (≈ 98.2 µM)

Source: PubChem BioAssay AID1996
